Patent publication US10941157B2, “Pesticidal compositions and uses thereof” (Gilead Apollo, LLC, priority 2015, dated 2021)
≈ marks a conversion by molar mass, not a printed value.

What was measured:
Format in all cases: cell-based
[1] = tested on: Botrtyis cinerea (Bc); assay: In vitro pathogen growth inhibition assay, Bc; conditions: 48 h, ≥90% inhibition; 48 hours vs 2% DMSO control; read-out: Compound Concentration (ppm) sufficient for ≥90% inhibition of growth, Bc
Outline: (§1)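 Spores in 17% V8 liquid medium, or 1.5 mm Rs mycelial plugs in ¼ PDB, incubated with compound; final concentration checked by OD600 for precipitation. OD readings at 24 and 48 h, blank-subtracted, plus visual ratings; value is concentration giving ≥90% growth inhibition.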

[2] = tested on: Collectotrichum graminicola (Cg); assay: In vitro pathogen growth inhibition assay, Cg; conditions: 48 h, ≥90% inhibition; 48 hours vs 2% DMSO control; read-out: Compound Concentration (ppm) sufficient for ≥90% inhibition of growth, Cg
Outline: as §1

[3] = tested on: Diplodia maydis (Dm); assay: In vitro pathogen growth inhibition assay, Dm; conditions: Stenocarpella maydis, 48 h, ≥90% inhibition; 48 hours vs 2% DMSO control; read-out: Compound Concentration (ppm) sufficient for ≥90% inhibition of growth, Dm
Outline: as §1

[4] = tested on: Fusarium moniliforme (Fm); assay: In vitro pathogen growth inhibition assay, Fm; conditions: Fusarium verticillioides; ≥90% inhibition; 48 hours vs 2% DMSO control; read-out: Compound Concentration (ppm) sufficient for ≥90% inhibition of growth, Fm
Outline: as §1

[5] = tested on: Fusarium virguliforme (Fv); assay: In vitro pathogen growth inhibition assay, Fv; conditions: ≥90% inhibition, 48 hours vs 2% DMSO control, read-out: Compound Concentration (ppm) sufficient for ≥90% inhibition of growth, Fv
Outline: as §1

[6] = tested on: Phytophthora capsici (Pc); assay: In vitro pathogen growth inhibition assay, Pc; conditions: 48 h, ≥90% inhibition, 48 hours vs 2% DMSO control, read-out: Compound Concentration (ppm) sufficient for ≥90% inhibition of growth, Pc
Outline: as §1

[7] = tested on: Rhizoctonia solani (Rs); assay: In vitro pathogen growth inhibition assay, Rs (mycelial plugs); conditions: Rhizoctonia solani, 48 h, ≥90% inhibition; mycelial plugs; 48 hours vs 2% DMSO control; read-out: Compound Concentration (ppm) sufficient for ≥90% inhibition of growth, Rs
Outline: as §1

[8] = tested on: Septoria tritici (St); assay: In vitro pathogen growth inhibition assay, St; conditions: Zymoseptoria tritici, 48 h, ≥90% inhibition; 48 hours vs 2% DMSO control; read-out: Compound Concentration (ppm) sufficient for ≥90% inhibition of growth, St
Outline: as §1

SMILES	IC90 [1] [µg/mL]	IC90 [2] [µg/mL]	IC90 [3] [µg/mL]	IC90 [4] [µg/mL]	IC90 [5] [µg/mL]	IC90 [6] [µg/mL]	IC90 [7] [µg/mL]	IC90 [8] [µg/mL]
COCCCO[C@@H](Cn1c(=O)n([C@@H](C)C(=O)NC(C)C)c(=O)c2c(C)c(-n3nccn3)sc21)c1cc(F)ccc1OC [Compound I-093]	0.4 (≈ 0.664 µM)	10 (≈ 16.6 µM)	2 (≈ 3.32 µM)	0.08 (≈ 0.133 µM)	10 (≈ 16.6 µM)	> 50	2 (≈ 3.32 µM)	> 50
COc1ccc(F)cc1[C@H](Cn1c(=O)n([C@H](C)C(=O)NC(C)C)c(=O)c2c(C)c(-n3nccn3)sc21)OCCO [Compound I-097]	0.4 (≈ 0.696 µM)	50 (≈ 87 µM)	≥ 2	0.08 (≈ 0.139 µM)	2 (≈ 3.48 µM)	> 50	2 (≈ 3.48 µM)	> 50
COc1ccc(F)cc1[C@H](Cn1c(=O)n(C(C)(C)C(N)=O)c(=O)c2c(C)c(-n3nccn3)sc21)OC(C)C [Compound I-113]	2 (≈ 3.67 µM)	2 (≈ 3.67 µM)	2 (≈ 3.67 µM)	0.4 (≈ 0.734 µM)	0.4 (≈ 0.734 µM)	> 50	0.08 (≈ 0.147 µM)	50 (≈ 91.8 µM)
COc1ccc(F)cc1[C@H](Cn1c(=O)n(C(C)(C)C(=O)N2CC(O)C2)c(=O)c2c(C)c(-n3nccn3)sc21)OC1CCOCC1 [Compound I-114]	2 (≈ 3.11 µM)	10 (≈ 15.6 µM)	10 (≈ 15.6 µM)	0.4 (≈ 0.622 µM)	2 (≈ 3.11 µM)	> 50	10 (≈ 15.6 µM)	> 50
COc1ccc(F)cc1[C@H](Cn1c(=O)n(C(C)(C)C(=O)NC(C)C)c(=O)c2c(C)c(-n3cccn3)sc21)OC1CCOCC1 [Compound I-115]	2 (≈ 3.19 µM)	≥ 2	≥ 2	0.4 (≈ 0.637 µM)	2 (≈ 3.19 µM)	> 50	10 (≈ 15.9 µM)	≥ 50
COc1ccccc1[C@H](Cn1c(=O)n(C(C)(C)C(=O)N2CCCC2)c(=O)c2c(C)c(-n3cccn3)sc21)OC1CCOCC1 [Compound I-116]	10 (≈ 16.1 µM)	≥ 2	10 (≈ 16.1 µM)	0.4 (≈ 0.643 µM)	10 (≈ 16.1 µM)	> 50	2 (≈ 3.22 µM)	≥ 50
COc1ccccc1[C@H](Cn1c(=O)n(C(C)(C)C(=O)N2CCCCC2)c(=O)c2c(C)c(-n3cccn3)sc21)OC1CCOCC1 [Compound I-117]	2 (≈ 3.15 µM)	10 (≈ 15.7 µM)	10 (≈ 15.7 µM)	0.4 (≈ 0.629 µM)	10 (≈ 15.7 µM)	> 50	10 (≈ 15.7 µM)	> 50
COc1ccccc1[C@H](Cn1c(=O)n(C(C)(C)C(=O)NC(C)C)c(=O)c2c(C)c(-n3cccn3)sc21)OC(C)C [Compound I-118]	2 (≈ 3.52 µM)	10 (≈ 17.6 µM)	2 (≈ 3.52 µM)	0.4 (≈ 0.705 µM)	0.4 (≈ 0.705 µM)	> 50	50 (≈ 88.1 µM)	≥ 50
COc1ccccc1[C@H](Cn1c(=O)n(C(C)(C)C(=O)NC(C)C)c(=O)c2c(C)c(-n3cccn3)sc21)OCC(C)C [Compound I-119]	2 (≈ 3.44 µM)	10 (≈ 17.2 µM)	≥ 2	0.4 (≈ 0.688 µM)	10 (≈ 17.2 µM)	> 50	2 (≈ 3.44 µM)	> 50
COc1ccccc1[C@H](Cn1c(=O)n(C(C)(C)C(=O)N2CCCC2)c(=O)c2c(C)c(-n3cccn3)sc21)OCC(C)C [Compound I-120]	2 (≈ 3.37 µM)	2 (≈ 3.37 µM)	2 (≈ 3.37 µM)	0.4 (≈ 0.674 µM)	10 (≈ 16.8 µM)	> 50	2 (≈ 3.37 µM)	> 50
COc1ccccc1[C@H](Cn1c(=O)n(C(C)(C)C(=O)N2CCCCC2)c(=O)c2c(C)c(-n3cccn3)sc21)OCC(C)C [Compound I-121]	2 (≈ 3.29 µM)	10 (≈ 16.5 µM)	≥ 2	0.4 (≈ 0.658 µM)	> 50	> 50	50 (≈ 82.3 µM)	> 50
COc1ccc(F)cc1[C@H](Cn1c(=O)n(C(C)(C)C(=O)N2CCCC2)c(=O)c2c(C)c(-n3cccn3)sc21)OC1CCC(=O)CC1 [Compound I-122]	2 (≈ 3.07 µM)	≥ 2	10 (≈ 15.3 µM)	0.4 (≈ 0.614 µM)	≥ 2	> 50	2 (≈ 3.07 µM)	> 50
COc1ccc(F)cc1[C@H](Cn1c(=O)n(C(C)(C)C(=O)N2CCCC2)c(=O)c2c(C)c(-n3cccn3)sc21)O[C@H]1CC[C@@H](O)CC1 [Compound I-123]	2 (≈ 3.06 µM)	≥ 10	10 (≈ 15.3 µM)	0.4 (≈ 0.612 µM)	2 (≈ 3.06 µM)	> 50	10 (≈ 15.3 µM)	> 50
COc1ccc(F)cc1[C@H](Cn1c(=O)n(C(C)(C)C(N)=O)c(=O)c2c(C)c(-n3nccn3)sc21)OC1CCC(=O)CC1 [Compound I-124]	≥ 0.4	10 (≈ 16.7 µM)	≥ 2	0.4 (≈ 0.668 µM)	10 (≈ 16.7 µM)	50 (≈ 83.5 µM)	2 (≈ 3.34 µM)	> 50
CCO[C@@H](Cn1c(=O)n(C(C)(C)C(=O)NC(C)C)c(=O)c2c(C)c(-n3cccn3)sc21)c1cc(F)ccc1OC [Compound I-125]	2 (≈ 3.5 µM)	≥ 2	> 50	0.4 (≈ 0.7 µM)	0.4 (≈ 0.7 µM)	> 50	≥ 2	> 50
COc1ccc(F)cc1[C@H](Cn1c(=O)n(C(C)C(=O)NC(C)C)c(=O)c2c(C)c(-n3cccn3)sc21)OC(C)C (some centres unmarked) [Compound I-126]	2 (≈ 3.5 µM)	2 (≈ 3.5 µM)	2 (≈ 3.5 µM)	0.4 (≈ 0.7 µM)	1.2 (≈ 2.1 µM)	50 (≈ 87.5 µM)	2 (≈ 3.5 µM)	50 (≈ 87.5 µM)
COc1ccc(F)cc1[C@H](Cn1c(=O)n([C@H](C)C(=O)NC(C)C)c(=O)c2c(C)c(-n3cccn3)sc21)OC(C)C [Compound I-127]	2 (≈ 3.5 µM)	2 (≈ 3.5 µM)	2 (≈ 3.5 µM)	0.4 (≈ 0.7 µM)	0.4 (≈ 0.7 µM)	> 50	2 (≈ 3.5 µM)	> 50
COc1ccc(F)cc1[C@H](Cn1c(=O)n(CC(=O)N2CCCC2)c(=O)c2c(C)c(-n3cccn3)sc21)OC(C)C [Compound I-128]	2 (≈ 3.51 µM)	10 (≈ 17.6 µM)	> 10	0.4 (≈ 0.702 µM)	2 (≈ 3.51 µM)	> 50	≥ 2	> 50
COc1ccc(F)cc1[C@H](Cn1c(=O)n(C(C)(C)C(=O)NC(C)C)c(=O)c2c(C)c(-n3cccn3)sc21)OCCO [Compound I-129]	2 (≈ 3.4 µM)	2 (≈ 3.4 µM)	10 (≈ 17 µM)	0.4 (≈ 0.681 µM)	2 (≈ 3.4 µM)	50 (≈ 85.1 µM)	2 (≈ 3.4 µM)	> 50
